Target: T1, human SIRT1 (Homo sapiens, UniProt Q96EB6)
T1 construct: purchased Sigma–Aldrich S8846
T1 sequence (Q96EB6 1-747): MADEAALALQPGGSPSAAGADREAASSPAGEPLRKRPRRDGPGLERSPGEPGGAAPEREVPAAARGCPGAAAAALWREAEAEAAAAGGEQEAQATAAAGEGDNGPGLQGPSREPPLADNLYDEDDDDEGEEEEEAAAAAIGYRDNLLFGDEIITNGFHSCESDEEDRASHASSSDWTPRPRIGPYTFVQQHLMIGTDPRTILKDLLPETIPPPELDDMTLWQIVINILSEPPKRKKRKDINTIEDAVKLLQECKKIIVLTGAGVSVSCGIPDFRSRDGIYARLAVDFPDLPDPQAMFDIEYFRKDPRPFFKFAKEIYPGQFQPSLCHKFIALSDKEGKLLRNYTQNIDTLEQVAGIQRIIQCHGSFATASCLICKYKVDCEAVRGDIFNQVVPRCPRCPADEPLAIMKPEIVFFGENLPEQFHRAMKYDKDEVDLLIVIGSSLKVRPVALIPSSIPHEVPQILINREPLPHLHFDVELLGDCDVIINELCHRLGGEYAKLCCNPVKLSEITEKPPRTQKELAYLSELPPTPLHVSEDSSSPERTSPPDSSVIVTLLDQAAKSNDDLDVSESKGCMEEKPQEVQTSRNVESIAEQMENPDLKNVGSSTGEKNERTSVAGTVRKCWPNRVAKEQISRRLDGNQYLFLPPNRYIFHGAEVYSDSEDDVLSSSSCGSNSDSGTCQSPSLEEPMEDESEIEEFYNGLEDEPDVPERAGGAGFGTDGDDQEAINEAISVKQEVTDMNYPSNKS
Assay: Surface plasmon resonance (Biacore T200) of SAND peptides on immobilized SIRT1
Type: binding
Details: for association with SIRT1 / association with SIRT1 with increasing peptide concentration / affinity (as seen through binding and dissociation) with SIRT1: SPR; for association with SIRT1: Biacore T200, CM5 chip, human SIRT1 immobilized in 10 mM sodium acetate pH 4.0 plus 20 µM NAD+, peptides (K222 acetylated) 20, 100, 200 μM, 20 μl/min, described in words; for association with SIRT1 / binding kinetics (association and dissociation) with SIRT1: contact time 300 s; for association with SIRT1 with increasing peptide concentration: six peptide concentrations 10, 15, 20, 50, 100, 200 µM plus control 0 µM, Supplementary Figure 1; for affinity (as seen through binding and dissociation) with SIRT1: wild-type versus mutant peptide; for affinity (as seen through binding and dissociation) with SIRT1 / binding kinetics (association and dissociation) with SIRT1: in words; for binding kinetics (association and dissociation) with SIRT1: SPR sensorgrams, 20, 100, 200 µM, dissociation time 1200 s
Experimental: The surface plasmon resonance (SPR) experiments were performed on Biacore Model T200 equipment (GE Healthcare Biosciences, Uppsala, Sweden). For the immobilization of human SIRT1 (catalog number S8846, Sigma–Aldrich, Saint Louis, MO), a CM5 sensor chip S series (GE Healthcare Biosciences) has carboxylic groups available for covalent coupling was used. All solutions used were purchased from the equipment supplier (GE Healthcare Biosciences). The procedures described here were performed automatically with the Biacore instrument using pre-established programs for binding amines in peptides or proteins.
Briefly, the carboxylic groups on the CM5 sensor chip surface were activated with EDC + NHS, forming the NHS ester reactive intermediate, which, after washing with HBS-N, readily reacted with amines dissolved in the immobilization solution. The human SIRT1 ligand was dissolved in 10 mM sodium acetate pH 4.0 plus 20 µM NAD+ (catalog number N1636, beta-nicotinamide adenine dinucleotide hydrate, Sigma–Aldrich), which was immobilized onto the Biacore sensor chip according to the manufacturer´s instructions.
To detect interactions between SIRT1 and AIRE WT or AIRE G228W mutant SAND domain peptides, different concentrations of peptides were injected onto the CM5 chip with immobilized SIRT1 protein. […] The surface was regenerated between samples by injecting 2.0 M glycine pH 2.0 (30 s, 30 μl/min) followed by injection of 2.0 M NaCl (30 s, 30 μl/min). The stabilization period between injections after regeneration was 200 s.
The respective sequences of the twenty-amino acid peptide residues (Synbio Technologies, Monmouth Junction, NJ, USA) comprising positions 211 to 230 of the SAND domain of the human AIRE protein are as follows: from the C to N-terminus, AIRE wild-type ([…]) and AIRE G228W mutant ([…]). The underlined K residue represents the position where the acetyl radical was added. The experiment determined whether the K residue underlined was acetylated or not. The AIRE wild-type or AIRE G228W mutation data are available through GenBank NCBI (https://www.ncbi.nlm.nih.gov/) accession numbers (NM_000383.4): c.682G>T G [GGG] > W [TGG], coding sequence variant autoimmune regulator (NP_000374.1): p. Gly228TrpG (Gly) > W missense variant, DbSNP (https://www.ncbi.nlm.nih.gov/snp/rs121434257) and ClinVar (https://www.ncbi.nlm.nih.gov/clinvar/variation/3313/).
Kinetic data were analyzed with Anabel Analysis of Binding Events software ([32]), available at (www.skscience.org/anabel). Data obtained with the different concentrations of AIRE WT or mutant peptides were combined in the same graph.

association with SIRT1	association with SIRT1 (listed as G228W mutant peptide)	association with SIRT1 (listed as mutant AIRE SAND peptide (Trp228))	association with SIRT1 with increasing peptide concentration	affinity (as seen through binding and dissociation) with SIRT1	binding kinetics (association and dissociation) with SIRT1 (listed as wild-type SAND domain peptide)	Sequence	binding kinetics (association and dissociation) with SIRT1 (listed as WT AIRE SAND peptide (Gly228))
less able to associate with SIRT1	weaker association	lesser association affinity	not observed	weaker association	–	IQQVFESGGSKKCIQVGWEF [mutant W228 SAND peptide, twenty-amino acid peptide comprising positions 211 to 230 of the SAND domain of the human AIRE protein, G228W mutant]	–
more significant association capacity	–	–	progressive increase in the association	stronger affinity	bound faster and dissociated longer	IQQVFESGGSKKCIQVGGEF [wild-type SAND G228 peptide, twenty-amino acid peptide comprising positions 211 to 230 of the SAND domain of the human AIRE protein, wild-type]	associated and dissociated with SIRT1 throughout the analysis

— PMC9485725, “The AIRE G228W mutation disturbs the interaction of AIRE with its partner molecule SIRT1” (Frontiers in Immunology, 2022)
